The record followed here is PMC8698759, “Gold(I) Complexes Bearing Alkylated 1,3,5-Triaza-7-phosphaadamantane Ligands as Thermoresponsive Anticancer Agents in Human Colon Cells” (Biomedicines, 2021).

One series concerns Human fibroblast cells. Kind of series: MTT cytotoxicity assay on fibroblasts. It is filed as cell-based. As to conditions: for fibroblasts viability when treated at the IC50 value in Caco-2: 3a 2.5 µM, 3b 5.1 µM, 2a 12.3 µM, 2b 10.5 µM; for Selectivity Index (SI): IC50 fibroblasts/IC50 Caco-2; for IC50: MTT, mean ± SE. The protocol:
Human Caco-2 cell line (TC7 clone) was kindly provided by Dr. Edith Brot-Laroche (Université Pierre et Marie Curie-Paris 6, UMR S 872, Les Cordeliers, France). Human fibroblast cells were kindly provided by Dr. Julio Montoya (Unidad de Bioquímica, Facultad de Veterinaria, Universidad de Zaragoza, Spain). Caco-2 cells (passages 40–70) and fibroblasts (passages 10–30) were maintained in a humidified atmosphere of 5% CO2 at 37 °C. Cells were grown in Dulbecco’s Modified Eagles medium (DMEM) (Gibco Invitrogen, Paisley, UK) supplemented with 20% fetal bovine serum (FBS), 1% non-essential amino acids, 1% penicillin (1000 U/mL), 1% streptomycin (1000 μg/mL) and 1% amphotericin (250 U/mL). The cells were passaged enzymatically with 0.25% trypsin-1 mM EDTA. Caco-2 cells were sub-cultured on 25 cm^2 plastic flasks at a density of 1.2 × 10^4 cells/cm^2, while fibroblasts were sub-cultured on 75 cm^2 plastic flasks at a density of 1 × 10^4 cells/cm^2. Culture medium was replaced every 2 days.
Gold complex was diluted in dimethyl sulfoxide (DMSO) to a stock solution at 20 mM and then re-diluted to a working solution at 2.5 mM before diluting it in cell culture medium to treat cells at desired concentrations.
For cytotoxicity screening assays, Caco-2 cells were seeded in 96-well plates at a density of 4 × 10^3 cells/well. Culture medium was replaced with medium containing drug panel 24 h post-seeding and cells were incubated for 72 h. In fibroblasts, culture medium containing metal gold complexes was added 10 days post-seeding. Antiproliferative effect was measured with MTT assay as previously described by Mármol et al.. Absorbance at 540/620 nm was measured with SPECTROstar Nano (BMG Labtech). To determine the selectivity index (SI) the IC50 value in fibroblasts was divided by IC50 value in Caco-2, obtaining a ratio cancerous/normal cells toxicity.
On the technique in general: Tetrazolium dyes change colour on reduction, which living cells bring about.

In a further series the test system is Caco-2 cells. Put plainly: Propidium iodide staining of DNA content and cell cycle analysis. It is filed as cell-based, human. The conditions noted are these: 3a 5.0 µM, 3b 10.2 µM; for cells in G0-G1 phase, 40 °C / cells in G2-M phase, 40 °C / cells in S phase, 40 °C: Caco-2, 1 h at 40 °C plus 47 h at 37 °C; for cell cycle progression: Caco-2, 48 h; for cells in G0-G1 phase, 37 °C / cells in G2-M phase, 37 °C / cells in S phase, 37 °C: Caco-2, 48 h at 37 °C. How it is done:
Caco-2 cells were seeded in 25 cm^2 flasks at a density of 1 × 10^4 cells/cm^2 and 24 h post-seeding, were exposed to drug panel for 48 h. Cells were fixed as described by Sánchez-de-Diego et al. before staining them with 50 μg/mL PI solution.

Another series relates to p53 in Caco-2 cells. Kind of series: Determination of p53 by flow cytometry. It is filed as cell-based, human. As to conditions: Caco-2, 48 h, versus non-treated cells. The protocol:
Caco-2 cells were seeded in 75 cm^2 flask at a density of 1 × 10^4 cells/cm^2 and, 24 h later, exposed to drug panel for 48 h. Then cells were collected and processed following instructions by Sánchez-de-Diego et al. Finally, 50 µL of every sample were incubated with 5 µL anti-active caspase-3 (BD Pharmigen, Clone C92-605) and 5 µL p53 antibody (Miltenyi, Clone REA609).

Each structure is given as a SMILES string.

On to `CCCCCCCC[N+]12CN3CN(C1)C[P+]([Au-][S]c1ccccn1)(C3)C2.[I-]` [Complex 3a, [Au(C5H5NS)(PTA-CH2(CH2)6CH3)]I], for which, in the series with Human fibroblast cells, the “fibroblasts viability when treated at the IC50 value in Caco-2” value was “did not compromise fibroblasts viability”; the “Selectivity Index (SI)” value was 4.86; the IC50 (as a rule, the point on the concentration scale where inhibition reaches its midpoint) was determined as 12.11 ± 0.11 µM. In the series on Caco-2 cells, the “cells in G0-G1 phase, 40 °C” value is reported as 63.7%; the “cells in G2-M phase, 40 °C” value is on record as 27.78%; the “cells in S phase, 40 °C” value was 8.56%; the cell cycle progression result is recorded as “increasing amount of cells in G0-G1 phase”. In the series on Caco-2 cells, the “cells in G0-G1 phase, 37 °C” value is reported as 43.3%; the “cells in G2-M phase, 37 °C” value is on record as 14.4%; the “cells in S phase, 37 °C” value amounted to 42.4%. For the same compound, in the series on p53 in Caco-2 cells, the p53 accumulation entry was “could induce p53 accumulation”.

Take `FC(F)(F)C(F)(F)C(F)(F)C(F)(F)C(F)(F)C(F)(F)CC[N+]12CN3CN(C1)C[P+]([Au-][S]c1ccccn1)(C3)C2.O=S(=O)([O-])C(F)(F)F` [Complex 3b, [Au(C5H5NS)(PTA-CH2CH2(CF2)5CF3)](TfO)]: in the series on Human fibroblast cells, the “fibroblasts viability when treated at the IC50 value in Caco-2” value was “did not compromise fibroblasts viability”, the “Selectivity Index (SI)” value was 2.51 and the concentration for half-maximal inhibition (IC50) is 12.8 ± 1.48 µM. In the series on Caco-2 cells, the “cells in G0-G1 phase, 40 °C” value came out at 48.1%; the “cells in G2-M phase, 40 °C” value is 17.2%; the “cells in S phase, 40 °C” value is on record as 34.7%; the cell cycle progression entry is given as “increasing amount of cells in G0-G1 phase”. Further, in the series on Caco-2 cells, the “cells in G0-G1 phase, 37 °C” value amounted to 41.4%; the “cells in G2-M phase, 37 °C” value is recorded as 12.5%; the “cells in S phase, 37 °C” value turned out to be 46.1%. Moreover, the p53 accumulation entry with p53 in Caco-2 cells is given as “could induce p53 accumulation”.
